According to patent publication US10435361B2, “Kinase inhibitors” (Topivert Pharma Limited, priority 2013, dated 2019):

Key:
Assay type in all cases: cell-based
PBMCs [1] = experiment: LPS-induced TNFα/IL-8 release in PBMC cells; settings: Homo sapiens, assay (b), read-out: IC50 Values for Inhibition of Cytokine Release PBMCs IL-8
Procedure, shortened: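 Healthy-donor PBMCs isolated by density gradient were pretreated with compound for 2 h, then stimulated with 1 ng/mL LPS (E. coli 0111:B4) for 24 h at 37° C., 5% CO2. IL-8 and TNFα in supernatants measured by sandwich ELISA.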

HT29 cells = experiment: IL-1β-induced IL-8 release in HT29 cells; settings: Homo sapiens, HT-29, assay (d), read-out: IC50 Values for Inhibition of Cytokine Release HT29 cells IL-8
Procedure: HT29 cells, a human colon adenocarcinoma cell line, are plated in a 96 well plate (24 hr) and pre-treated with compounds at the desired concentration for 2 hours before addition of 5 ng/mL of IL-1β (Abcam) for 24 hours. Supernatants are harvested for IL-8 quantification by Sandwich ELISA (Duo-set, R&D System). The IC50 is determined from the dose response curve.

PBMCs [2] = experiment: IL-2 and IFN gamma release in CD3/CD28 stimulated PBMC cells; settings: Homo sapiens, assay (c)
Procedure: PBMCs from healthy subjects are separated from whole blood using a density gradient (Lymphoprep, Axis-Shield Healthcare). Cells are added to a 96 well plate pre-coated with a mixture of CD3/CD28 monoclonal antibodies (0.3 μg/mL eBioscience and 3 μg/mL BD Pharmingen respectively). Compound at the desired concentration is then added to the wells and the plate left for 3 days under normal tissue culture conditions. […] The IC50 is determined from the dose response curve.

PBMCs [3] = experiment: Cell mitosis assay in PBMCs; settings: Homo sapiens, PBMC, 5 μg/mL
Procedure: Peripheral blood mononucleocytes (PBMCs) from healthy subjects are separated from whole blood (Quintiles, London, UK) using a density gradient (Histopaque®-1077, Sigma-Aldrich, Poole, UK). The PBMCs (3 million cells per sample) are subsequently treated with 2% PHA (phytohaemagglutinin, Sigma-Aldrich, Poole, UK) for 48 hr, followed by a 20 hr exposure to varying concentrations of test compounds. At 2 hr before collection, PBMCs are treated with demecolcine (0.1 μg/mL; Invitrogen, Paisley, UK) to arrest cells in metaphase. To observe mitotic cells, PBMCs are permeabilised and fixed by adding Intraprep (50 μL; Beckman Coulter, France), and stained with anti-phospho-histone 3 (0.26 ng/L; #9701; Cell Signalling, Danvers, Mass.) and propidium iodide (1 mg/mL; Sigma-Aldrich, Poole, UK) as previously described (Muehlbauer P. A. and Schuler M. J., Mutation Research, 2003, 537:117-130). Fluorescence is observed using an ATTUNE flow cytometer (Invitrogen, Paisley, UK), gating for lymphocytes.

[4] = read-out: IC50 Values for Inhibition of Cytokine Release PBMCs IFNγ
[5] = read-out: IC50 Values for Inhibition of Cytokine Release PBMCs IL-2

| IC50 (HT29 cells) | Compound | IC50 (PBMCs [1]) | IC50 (PBMCs [2]; [4]) | IC50 (PBMCs [2]; [5]) | inhibition at 5 µg/mL (PBMCs [3]) |
| --- | --- | --- | --- | --- | --- |
| 62.5 nM | COCCOCCOCCOc1cc(Nc2nccc(Oc3ccc(NC(=O)Nc4cc(C(C)(C)C)cc(NS(C)(=O)=O)c4-c4ccccc4)c4ccccc34)n2)cc(OC)c1 [83(a), N-(4-(tert-butyl)-6-(3-(4-((2-((3-methoxy-5-(2-(2-(2-methoxyethoxy)ethoxy)ethoxy)phenyl)-amino)pyrimidin-4-yl)oxy)naphthalen-1-yl)ureido)-[1,1′-biphenyl]-2-yl)methane-sulfonamide] | 39 nM | – | – | – |
| – | COc1cc(Nc2cc(Oc3ccc(NC(=O)Nc4cc(C(C)(C)C)cc(NS(C)(=O)=O)c4OC)c4ccccc34)ccn2)cc(C(=O)NCCN2CCS(=O)(=O)CC2)c1 [85(k), 3-[[4-[[4-[[5-tert-Butyl-3-(methanesulfonamido)-2-methoxyphenyl]-carbamoylamino]-1-naphthyl]oxy]-2-pyridyl]amino]-N-[2-(1,1-dioxo-1,4-thiazinan-4-yl)ethyl]-5-methoxybenzamide] | 1.7 nM | 9.3 nM | 57.1 nM | 41% |
| – | C#Cc1cc(Nc2nccc(Oc3ccc(NC(=O)Nc4cc(C(C)(C)C)cc(NS(C)(=O)=O)c4OC)c4ccccc34)n2)cc(C(=O)NCCN2CCOCC2)c1 [Example 1, 3-((4-((4-(3-(5-(tert-Butyl)-2-methoxy-3-(methylsulfonamido)phenyl)ureido)naphthalen-1-yl)oxy)pyrimidin-2-yl)amino)-5-ethynyl-N-(2-morpholinoethyl)benzamide] | 1.4 nM | 10.4 nM | 112 nM | 22.1% |
| – | C#Cc1cc(Nc2nccc(Oc3ccc(NC(=O)Nc4cc(F)cc(N5CCOCC5)c4)c4ccccc34)n2)cc(C(=O)NCCN2CCOCC2)c1 [Example 2, 3-Ethynyl-5-((4-((4-(3-(3-fluoro-5-morpholinophenyl)ureido)naphthalen-1-yl)oxy)-pyrimidin-2-yl)amino)-N-(2-morpholinoethyl)benzamide] | 142 nM | 35.7 nM | – | 4% |
| – | COc1cc(Nc2nccc(Oc3ccc(NC(=O)Nc4cc(C(C)(C)C)cc(NS(C)(=O)=O)c4OC)c4ccccc34)n2)cc(C(=O)NCCN2CCOCC2)c1 [Example 6, 3-((4-((4-(3-(5-(tert-Butyl)-2-methoxy-3-(methylsulfonamido)phenyl)ureido)naphthalen-1-yl)oxy)pyrimidin-2-yl)amino)-5-methoxy-N-(2-morpholinoethyl)benzamide] | 0.8 nM | 9.3 nM | 89.9 nM | 41.7% |
| 1320 nM | COCCOCCOCCOc1cc(Nc2nccc(Oc3ccc(NC(=O)Nc4cc(N5CCOCC5)ccc4OC)c4ccccc34)n2)cc(OC)c1 [Example 12, 1-(4-((2-((3-Methoxy-5-(2-(2-(2-methoxyethoxy)ethoxy)ethoxy)phenyl)amino)-pyrimidin-4-yl)oxy)naphthalen-1-yl)-3-(2-methoxy-5-morpholinophenyl)urea] | 107 nM | – | – | – |
| – | CNC(=O)c1cc(C(C)(C)C)cc(NC(=O)Nc2ccc(Oc3ccnc(Nc4cc(OC)cc(OCCOCCOCCOC)c4)n3)c3ccccc23)c1OC [Example 13, 5-(tert-Butyl)-2-methoxy-3-(3-(4-((2-((3-methoxy-5-(2-(2-(2-methoxyethoxy)ethoxy)-ethoxy)phenyl)amino)pyrimidin-4-yl)oxy)naphthalen-1-yl)ureido)-N-methylbenzamide] | 1.3 nM | 4.6 nM | 57.4 nM | 46.1% |
| – | COCCOCCOCCOc1cc(Nc2nccc(Oc3ccc(NC(=O)Nc4cc(C(C)(C)C)cc(C(N)=O)c4OC)c4ccccc34)n2)cc(OC)c1 [Example 20, 5-(tert-Butyl)-2-methoxy-3-(3-(4-((2-((3-methoxy-5-(2-(2-(2-methoxyethoxy)ethoxy)-ethoxy)phenyl)amino)pyrimidin-4-yl)oxy)naphthalen-1-yl)ureido)benzamide] | 1.1 nM | 9 nM | 84.3 nM | 44.3% |
| – | COCCOCCOCCOc1cc(Nc2nccc(Oc3ccc(NC(=O)Nc4cc(NS(C)(=O)=O)cc(C(C)(C)C)c4)c4ccccc34)n2)cc(OC)c1 [Example 24, N-(3-(tert-Butyl)-5-(3-(4-((2-((3-methoxy-5-(2-(2-(2-methoxyethoxy)ethoxy)ethoxy)-phenyl)amino)pyrimidin-4-yl)oxy)naphthalen-1-yl)ureido)phenyl)methanesulfonamide] | 1.9 nM | 10.7 nM | 24.9 nM | 22.5% |
| – | COCCOCCOCCOc1cc(Nc2nccc(Oc3ccc(NC(=O)Nc4cc(C(C)(C)C)cc(C(=O)NCCO)c4OC)c4ccccc34)n2)cc(OC)c1 [Example 35, 5-(tert-Butyl)-N-(2-hydroxyethyl)-2-methoxy-3-(3-(4-((2-((3-methoxy-5-(2-(2-(2-methoxy-ethoxy)ethoxy)ethoxy)phenyl)amino)pyrimidin-4-yl)oxy)naphthalen-1-yl)ureido)-benzamide] | 1.4 nM | 3.5 nM | 51 nM | 41.1% |
| – | COCCOCCOCCOc1cc(Nc2nccc(Oc3ccc(NC(=O)Nc4cc(C(C)(C)C)cc(C(=O)NCCN(C)C)c4OC)c4ccccc34)n2)cc(OC)c1 [Example 46, 5-(tert-Butyl)-N-(2-(dimethylamino)ethyl)-2-methoxy-3-(3-(4-((2-((3-methoxy-5-(2-(2-(2-methoxyethoxy)ethoxy)ethoxy)phenyl)amino)pyrimidin-4-yl)oxy)naphthalen-1-yl)ureido)-benzamide] | 0.9 nM | 2 nM | – | 67.1% |
| – | COc1cc(Nc2cc(Oc3ccc(NC(=O)Nc4cc(C(C)(C)C)cc(C(N)=O)c4OC)c4ccccc34)ccn2)cc(C(=O)NCCN2CCOCC2)c1 [Example 47, 3-((4-((4-(3-(5-(tert-Butyl)-3-carbamoyl-2-methoxyphenyl)ureido)naphthalen-1-yl)oxy)pyridin-2-yl)amino)-5-methoxy-N-(2-morpholinoethyl)benzamide] | 1.6 nM | 7.3 nM | 102 nM | 59.1% |
| – | C#Cc1cc(Nc2cc(Oc3ccc(NC(=O)Nc4cc(C(C)(C)C)cc(NS(C)(=O)=O)c4OC)c4ccccc34)ccn2)cc(C(=O)NCCOCCOCCOC)c1 [Example 54, 3-((4-((4-(3-(5-(tert-Butyl)-2-methoxy-3-(methylsulfonamido)phenyl)ureido)naphthalen-1-yl)oxy)pyridin-2-yl)amino)-5-ethynyl-N-(2-(2-(2-methoxyethoxy)ethoxy)ethyl)benzamide] | 1.6 nM | 33.3 nM | 354 nM | 37.8% |
| – | COCCOCCOCCOc1cc(Nc2nccc(Oc3ccc(NC(=O)Nc4cc(C(C)(C)C)cc(-c5nnco5)c4OC)c4ccccc34)n2)cc(OC)c1 [Example 59, 1-(5-(tert-Butyl)-2-methoxy-3-(1,3,4-oxadiazol-2-yl)phenyl)-3-(4-((2-((3-methoxy-5-(2-(2-(2-methoxyethoxy)ethoxy)ethoxy)phenyl)amino)pyrimidin-4-yl)oxy)naphthalen-1-yl)urea] | 3.3 nM | 7.6 nM | 58.6 nM | 55.3% |
| – | C#Cc1cc(Nc2cc(Oc3ccc(NC(=O)Nc4cc(C(C)(C)C)cc(NS(C)(=O)=O)c4OC)c4ccccc34)ccn2)cc(C(=O)N[C@@H](C)COCCOCCOC)c1 [Example 67, (S)-3-((4-((4-(3-(5-(tert-Butyl)-2-methoxy-3-(methylsulfonamido)phenyl)ureido)-naphthalen-1-yl)oxy)pyridin-2-yl)amino)-5-ethynyl-N-(1-(2-(2-methoxyethoxy)ethoxy)-propan-2-yl)benzamide] | 2.7 nM | 39.5 nM | 200 nM | 35.6% |
| – | COc1c(NC(=O)Nc2ccc(Oc3ccnc(NCc4ccccn4)c3)c3ccccc23)cc(C(C)(C)C)cc1C(=O)NC1COC1 [Example 80, 5-(tert-Butyl)-2-methoxy-N-(oxetan-3-yl)-3-(3-(4-((2-((pyridin-2-ylmethyl)amino)pyridin-4-yl)oxy)naphthalen-1-yl)ureido)benzamide] | 4.3 nM | 23.8 nM | – | 70.4% |
| – | COc1cccc(Nc2cc(Oc3ccc(NC(=O)Nc4cc(C(C)(C)C)cc(C(=O)NC5COC5)c4OC)c4ccccc34)ccn2)c1 [Example 81, 5-(tert-Butyl)-2-methoxy-3-(3-(4-((2-((3-methoxyphenyl)amino)pyridin-4-yl)oxy)naphthalen-1-yl)ureido)-N-(oxetan-3-yl)benzamide] | 2.7 nM | 4 nM | 98.8 nM | 58.1% |
